Measured values: the NIST ThermoML archive (doi:10.1021/je060271a)

Conditions: 323.15 K, Liquid, Vibrating tube method

CCCCCCCC(=O)OCC(COC(=O)CCCCCCC)(COC(=O)CCCCCCC)COC(=O)CCCCCCC [pentaerythritol tetraoctanoate]
Conditions	mass density [kg/m3]
16301 kPa	951.3
16330 kPa	951.2
16376 kPa	951.3
16399 kPa	951.4
16422 kPa	951.4
16451 kPa	951.3
16486 kPa	951.5
16514 kPa	951.3
16560 kPa	951.4
16590 kPa	951.6
16619 kPa	951.6
16654 kPa	951.5
16683 kPa	951.5
16714 kPa	951.6
16744 kPa	951.6
16780 kPa	951.7
16810 kPa	951.5
16846 kPa	951.5
16876 kPa	951.7
16907 kPa	951.6
16937 kPa	951.7
16974 kPa	951.6
17005 kPa	951.8
17037 kPa	951.9
17074 kPa	951.8
17106 kPa	951.8
17140 kPa	951.8
17172 kPa	951.9
17203 kPa	951.8
17241 kPa	951.9
17266 kPa	951.9
17311 kPa	951.8
17344 kPa	951.9
17376 kPa	951.9
17414 kPa	952
17448 kPa	951.9
17480 kPa	952
17513 kPa	951.9
17554 kPa	952
17583 kPa	952.2
17622 kPa	952.1
17656 kPa	952.1
17696 kPa	952.2
17730 kPa	952.1
17763 kPa	952.1
17797 kPa	952.3
17838 kPa	952.3
17872 kPa	952.2
17907 kPa	952.2
17948 kPa	952.3
17984 kPa	952.3
18019 kPa	952.4
18055 kPa	952.5
18097 kPa	952.4
18132 kPa	952.3
18168 kPa	952.3
18210 kPa	952.5
18246 kPa	952.5
18282 kPa	952.4
18325 kPa	952.6
18361 kPa	952.5
18398 kPa	952.7
18442 kPa	952.6
18479 kPa	952.7
18516 kPa	952.6
18554 kPa	952.7
18599 kPa	952.7
18637 kPa	952.7
18682 kPa	952.7
18720 kPa	952.8
18758 kPa	952.8
18796 kPa	952.7
18843 kPa	952.9
18882 kPa	952.8
18922 kPa	952.9
18970 kPa	953
19012 kPa	953
19056 kPa	953
19097 kPa	953
19139 kPa	953.1
19166 kPa	952.9
19197 kPa	953.2
19223 kPa	953.1
19250 kPa	953.1
19282 kPa	953
19308 kPa	953.1
19341 kPa	953.3
19368 kPa	953.2
19395 kPa	953.2
19422 kPa	953.3
19456 kPa	953.2
19483 kPa	953.2
19511 kPa	953.2
19543 kPa	953.4
19571 kPa	953.3
19603 kPa	953.2
19632 kPa	953.3
19660 kPa	953.4
19688 kPa	953.4
19722 kPa	953.4
19750 kPa	953.4
19778 kPa	953.4
19812 kPa	953.4
19842 kPa	953.6
19871 kPa	953.4
19905 kPa	953.5
19934 kPa	953.4
19962 kPa	953.5
19997 kPa	953.5
20055 kPa	953.4
20090 kPa	953.6
20119 kPa	953.6
20149 kPa	953.7
20185 kPa	953.7
20216 kPa	953.7
20246 kPa	953.7
20276 kPa	953.7
20307 kPa	953.8
20343 kPa	953.7
20373 kPa	953.7
20404 kPa	953.7
20441 kPa	953.8
20471 kPa	953.8
20502 kPa	953.9
20538 kPa	953.8
20570 kPa	954
20601 kPa	953.9
20634 kPa	954
20667 kPa	954
20705 kPa	954
20736 kPa	954
20767 kPa	954
20805 kPa	954.1
20836 kPa	954.1
20868 kPa	954
20906 kPa	954
20938 kPa	954.2
20970 kPa	954.1
21008 kPa	954.2
21041 kPa	954.1
21074 kPa	954.1
21107 kPa	954.2
21146 kPa	954.2
21178 kPa	954.1
21218 kPa	954.3
21251 kPa	954.4
21284 kPa	954.4
